Data reported in ChEMBL document CHEMBL5724806, “Unraveling interindividual differences and functional consequences of gut microbial metabolism of immunosuppressants” (2024).

How the values were obtained:
Type in all cases: ADME
[1] = (§1) The drug is tested on the gut metagenome community of A-10 with ENA study accession number: PRJEB31790 for biotransformation under anaerobic condition. The drug concentrations were measured over 7 timepoints collected between 0 and 12 hours of incubation by liquid-chromatography-coupled mass spectrometry (LC–MS); parameters: dose 5 uM, timepoint 0, 0.75, 1.5, 3, 6, 9, 12 hours; conditions: 5 µM
[2] = The drug is tested on Escherichia coli strain: DSM27469 for biotransformation under microaerobic condition. The drug concentrations were measured over 6 timepoints collected between 0 and 12 hours of incubation by liquid-chromatography-coupled mass spectrometry (LC–MS); parameters: dose 5 uM, timepoint 0, 1.5, 3, 6, 9, 12 hours; conditions: 5 µM
[3] = as §1, with “A-04” for “A-10”, “microaerobic” for “anaerobic”; parameters: dose 5 uM, timepoint 0, 0.75, 1.5, 3, 6, 9, 12 hours; conditions: 5 µM
[4] = as §1, with “P-02” for “A-10”; parameters: dose 5 uM, timepoint 0, 0.75, 1.5, 3, 6, 9, 12 hours; conditions: 5 µM
[5] = The drug is tested on Eubacterium hallii strain: DSM3353 for biotransformation under anaerobic condition. The drug concentrations were measured over 6 timepoints collected between 0 and 12 hours of incubation by liquid-chromatography-coupled mass spectrometry (LC–MS); parameters: dose 5 uM, timepoint 0, 1.5, 3, 6, 9, 12 hours; conditions: anaerobutyricum hallii, 5 µM
[6] = The drug is tested on Akkermansia muciniphila strain: DSM22959 for biotransformation under anaerobic condition. The drug concentrations were measured over 6 timepoints collected between 0 and 12 hours of incubation by liquid-chromatography-coupled mass spectrometry (LC–MS); parameters: dose 5 uM, timepoint 0, 1.5, 3, 6, 9, 12 hours; conditions: 5 µM
[7] = The drug is tested on Bacteroides xylanisolvens strain: HM 722 for biotransformation under anaerobic condition. The drug concentrations were measured over 6 timepoints collected between 0 and 12 hours of incubation by liquid-chromatography-coupled mass spectrometry (LC–MS); parameters: dose 5 uM, timepoint 0, 1.5, 3, 6, 9, 12 hours; conditions: 5 µM
[8] = The drug is tested on Roseburia intestinalis strain: DSM14610 for biotransformation under anaerobic condition. The drug concentrations were measured over 6 timepoints collected between 0 and 12 hours of incubation by liquid-chromatography-coupled mass spectrometry (LC–MS); parameters: dose 5 uM, timepoint 0, 1.5, 3, 6, 9, 12 hours; conditions: 5 µM
[9] = The drug is tested on Collinsella aerofaciens strain: DSM3979 for biotransformation under anaerobic condition. The drug concentrations were measured over 6 timepoints collected between 0 and 12 hours of incubation by liquid-chromatography-coupled mass spectrometry (LC–MS); parameters: dose 5 uM, timepoint 0, 1.5, 3, 6, 9, 12 hours; conditions: 5 µM
[10] = as §1, with “T-04” for “A-10”; parameters: dose 5 uM, timepoint 0, 0.75, 1.5, 3, 6, 9, 12 hours; conditions: 5 µM
[11] = The drug is tested on Streptococcus salivarius strain: DSM20560 for biotransformation under anaerobic condition. The drug concentrations were measured over 6 timepoints collected between 0 and 12 hours of incubation by liquid-chromatography-coupled mass spectrometry (LC–MS); parameters: dose 5 uM, timepoint 0, 1.5, 3, 6, 9, 12 hours; conditions: 5 µM
[12] = The drug is tested on Streptococcus sanguinis strain: DSM20567 for biotransformation under anaerobic condition. The drug concentrations were measured over 6 timepoints collected between 0 and 12 hours of incubation by liquid-chromatography-coupled mass spectrometry (LC–MS); parameters: dose 5 uM, timepoint 0, 1.5, 3, 6, 9, 12 hours; conditions: 5 µM
[13] = as §1, with “A-05” for “A-10”; parameters: dose 5 uM, timepoint 0, 0.75, 1.5, 3, 6, 9, 12 hours; conditions: 5 µM
[14] = as §1, with “P-02” for “A-10”, “microaerobic” for “anaerobic”; parameters: dose 5 uM, timepoint 0, 0.75, 1.5, 3, 6, 9, 12 hours; conditions: 5 µM
[15] = The drug is tested on Blautia hansenii strain: DSM20583 for biotransformation under anaerobic condition. The drug concentrations were measured over 6 timepoints collected between 0 and 12 hours of incubation by liquid-chromatography-coupled mass spectrometry (LC–MS); parameters: dose 5 uM, timepoint 0, 1.5, 3, 6, 9, 12 hours; conditions: 5 µM
[16] = The drug is tested on Gemella morbillorum strain: DSM20572 for biotransformation under anaerobic condition. The drug concentrations were measured over 6 timepoints collected between 0 and 12 hours of incubation by liquid-chromatography-coupled mass spectrometry (LC–MS); parameters: dose 5 uM, timepoint 0, 1.5, 3, 6, 9, 12 hours; conditions: 5 µM
[17] = The drug is tested on Actinomyces graevenitzii strain: DSM15540 for biotransformation under microaerobic condition. The drug concentrations were measured over 6 timepoints collected between 0 and 12 hours of incubation by liquid-chromatography-coupled mass spectrometry (LC–MS); parameters: dose 5 uM, timepoint 0, 1.5, 3, 6, 9, 12 hours; conditions: 5 µM
[18] = The drug is tested on Actinomyces naeslundi strain: DSM43013 for biotransformation under anaerobic condition. The drug concentrations were measured over 6 timepoints collected between 0 and 12 hours of incubation by liquid-chromatography-coupled mass spectrometry (LC–MS); parameters: dose 5 uM, timepoint 0, 1.5, 3, 6, 9, 12 hours; conditions: actinomyces naeslundii, 5 µM
[19] = The drug is tested on Bifidobacterium longum strain: DSM20088 for biotransformation under anaerobic condition. The drug concentrations were measured over 6 timepoints collected between 0 and 12 hours of incubation by liquid-chromatography-coupled mass spectrometry (LC–MS); parameters: dose 5 uM, timepoint 0, 1.5, 3, 6, 9, 12 hours; conditions: 5 µM
[20] = as §1, with “A-08” for “A-10”, “microaerobic” for “anaerobic”; parameters: dose 5 uM, timepoint 0, 0.75, 1.5, 3, 6, 9, 12 hours; conditions: 5 µM
[21] = as §1, with “P-04” for “A-10”, “microaerobic” for “anaerobic”; parameters: dose 5 uM, timepoint 0, 0.75, 1.5, 3, 6, 9, 12 hours; conditions: 5 µM
[22] = The drug is tested on Alloscardovia omnicolens strain: DSM21503 for biotransformation under anaerobic condition. The drug concentrations were measured over 6 timepoints collected between 0 and 12 hours of incubation by liquid-chromatography-coupled mass spectrometry (LC–MS); parameters: dose 5 uM, timepoint 0, 1.5, 3, 6, 9, 12 hours; conditions: 5 µM
[23] = The drug is tested on Lactobacillus paracasei strain: ATCC27092 for biotransformation under microaerobic condition. The drug concentrations were measured over 6 timepoints collected between 0 and 12 hours of incubation by liquid-chromatography-coupled mass spectrometry (LC–MS); parameters: dose 5 uM, timepoint 0, 1.5, 3, 6, 9, 12 hours; conditions: lacticaseibacillus paracasei, 5 µM
[24] = The drug is tested on Gemella haemolysans strain: DSM107751 for biotransformation under microaerobic condition. The drug concentrations were measured over 6 timepoints collected between 0 and 12 hours of incubation by liquid-chromatography-coupled mass spectrometry (LC–MS); parameters: dose 5 uM, timepoint 0, 1.5, 3, 6, 9, 12 hours; conditions: 5 µM
[25] = The drug is tested on Clostridium ramosum strain: DSM1402 for biotransformation under anaerobic condition. The drug concentrations were measured over 6 timepoints collected between 0 and 12 hours of incubation by liquid-chromatography-coupled mass spectrometry (LC–MS); parameters: dose 5 uM, timepoint 0, 1.5, 3, 6, 9, 12 hours; conditions: thomasclavelia ramosa, 5 µM
[26] = The drug is tested on Escherichia coli strain: DSM27469 for biotransformation under anaerobic condition. The drug concentrations were measured over 6 timepoints collected between 0 and 12 hours of incubation by liquid-chromatography-coupled mass spectrometry (LC–MS); parameters: dose 5 uM, timepoint 0, 1.5, 3, 6, 9, 12 hours; conditions: 5 µM
[27] = The drug is tested on Gemella haemolysans strain: DSM107751 for biotransformation under anaerobic condition. The drug concentrations were measured over 6 timepoints collected between 0 and 12 hours of incubation by liquid-chromatography-coupled mass spectrometry (LC–MS); parameters: dose 5 uM, timepoint 0, 1.5, 3, 6, 9, 12 hours; conditions: 5 µM
[28] = as §1, with “P-01” for “A-10”; parameters: dose 5 uM, timepoint 0, 0.75, 1.5, 3, 6, 9, 12 hours; conditions: 5 µM
[29] = The drug is tested on Clostridium bolteae strain: DSM15670 for biotransformation under anaerobic condition. The drug concentrations were measured over 6 timepoints collected between 0 and 12 hours of incubation by liquid-chromatography-coupled mass spectrometry (LC–MS); parameters: dose 5 uM, timepoint 0, 1.5, 3, 6, 9, 12 hours; conditions: enterocloster bolteae, 5 µM
[30] = as §1, with “A-02” for “A-10”, “microaerobic” for “anaerobic”; parameters: dose 5 uM, timepoint 0, 0.75, 1.5, 3, 6, 9, 12 hours; conditions: 5 µM

Row | SMILES | Bacterial Biotransformation [1] | Bacterial Biotransformation [2] | Bacterial Biotransformation [3] | Bacterial Biotransformation [4] | Bacterial Biotransformation [5] | Bacterial Biotransformation [6] | Bacterial Biotransformation [7] | Bacterial Biotransformation [8] | Bacterial Biotransformation [9] | Bacterial Biotransformation [10] | Bacterial Biotransformation [11] | Bacterial Biotransformation [12] | Bacterial Biotransformation [13] | Bacterial Biotransformation [14] | Bacterial Biotransformation [15] | Bacterial Biotransformation [16] | Bacterial Biotransformation [17] | Bacterial Biotransformation [18] | Bacterial Biotransformation [19] | Bacterial Biotransformation [20] | further results
1 | Cn1cnc([N+](=O)[O-])c1Sc1ncnc2nc[nH]c12 [AZATHIOPRINE] | Compound NOT metabolized | Compound metabolized | Compound metabolized | Compound NOT metabolized | Compound metabolized | Compound metabolized | Compound metabolized | Compound metabolized | Compound metabolized | Compound NOT metabolized | Compound metabolized | Compound metabolized | Compound metabolized | Compound NOT metabolized | Compound NOT metabolized | Compound NOT metabolized | Compound metabolized | Compound NOT metabolized | Compound metabolized | Compound metabolized | Bacterial Biotransformation [21]: Compound NOT metabolized; Bacterial Biotransformation [22]: Compound metabolized; Bacterial Biotransformation [23]: Compound NOT metabolized; Bacterial Biotransformation [24]: Compound NOT metabolized; Bacterial Biotransformation [25]: Compound metabolized; Bacterial Biotransformation [26]: Compound metabolized; Bacterial Biotransformation [27]: Compound NOT metabolized; Bacterial Biotransformation [28]: Compound metabolized; Bacterial Biotransformation [29]: Compound NOT metabolized; Bacterial Biotransformation [30]: Compound metabolized
2 | C[C@H]1C[C@H]2[C@@H]3CCC4=CC(=O)C=C[C@]4(C)[C@@]3(F)[C@@H](O)C[C@]2(C)[C@@]1(O)C(=O)CO [BETAMETHASONE] | Compound NOT metabolized | Compound NOT metabolized | Compound metabolized | Compound metabolized | Compound NOT metabolized | Compound NOT metabolized | Compound NOT metabolized | Compound NOT metabolized | Compound NOT metabolized | Compound NOT metabolized | Compound NOT metabolized | Compound NOT metabolized | Compound NOT metabolized | Compound NOT metabolized | Compound NOT metabolized | Compound NOT metabolized | Compound NOT metabolized | Compound NOT metabolized | Compound NOT metabolized | Compound metabolized | Bacterial Biotransformation [21]: Compound NOT metabolized; Bacterial Biotransformation [22]: Compound NOT metabolized; Bacterial Biotransformation [23]: Compound NOT metabolized; Bacterial Biotransformation [24]: Compound NOT metabolized; Bacterial Biotransformation [25]: Compound NOT metabolized; Bacterial Biotransformation [26]: Compound NOT metabolized; Bacterial Biotransformation [27]: Compound NOT metabolized; Bacterial Biotransformation [28]: Compound NOT metabolized; Bacterial Biotransformation [29]: Compound NOT metabolized; Bacterial Biotransformation [30]: Compound metabolized
3 | CCCC1O[C@@H]2C[C@H]3[C@@H]4CCC5=CC(=O)C=C[C@]5(C)[C@H]4[C@@H](O)C[C@]3(C)[C@]2(C(=O)CO)O1 (stereo not given in full) [BUDESONIDE] | Compound NOT metabolized | Compound NOT metabolized | Compound metabolized | Compound metabolized | Compound NOT metabolized | Compound NOT metabolized | Compound NOT metabolized | Compound NOT metabolized | Compound NOT metabolized | Compound NOT metabolized | Compound NOT metabolized | Compound NOT metabolized | Compound NOT metabolized | Compound NOT metabolized | Compound NOT metabolized | Compound NOT metabolized | Compound NOT metabolized | Compound NOT metabolized | Compound NOT metabolized | Compound metabolized | Bacterial Biotransformation [21]: Compound NOT metabolized; Bacterial Biotransformation [22]: Compound NOT metabolized; Bacterial Biotransformation [23]: Compound NOT metabolized; Bacterial Biotransformation [24]: Compound NOT metabolized; Bacterial Biotransformation [25]: Compound NOT metabolized; Bacterial Biotransformation [26]: Compound NOT metabolized; Bacterial Biotransformation [27]: Compound NOT metabolized; Bacterial Biotransformation [28]: Compound metabolized; Bacterial Biotransformation [29]: Compound NOT metabolized; Bacterial Biotransformation [30]: Compound metabolized
